# According to PubChem BioAssay (NCI):
#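 Interpolation was linear, between the two tested concentrations surrounding the appropriate level; five concentrations were tested over 48 hours in 96-well plates. TGI: concentration producing complete growth inhibition.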
# Assays:
# Assay in all cases: growth of human tumour cells (NCI), 48 h
# [1] = tested on: SW-620 colon
# [2] = tested on: 786-0 renal
# [3] = tested on: SNB-75 CNS
# [4] = tested on: UACC-62 melanoma
# [5] = tested on: HCC-2998 colon
# [6] = tested on: SF-295 CNS
# [7] = tested on: OVCAR-3 ovarian
# [8] = tested on: SK-MEL-2 melanoma
# [9] = tested on: SK-MEL-5 melanoma
# [10] = tested on: A498 renal
# [11] = tested on: RXF 393 renal
# [12] = tested on: MOLT-4 leukemia
# [13] = tested on: MDA-MB-231 breast
# [14] = tested on: HL-60(TB) leukemia
# [15] = tested on: HCT-116 colon
# [16] = tested on: BT-549 breast
# [17] = tested on: HT29 colon
# [18] = tested on: NCI-H226 lung
# [19] = tested on: HOP-62 NSCLC
# [20] = tested on: HS 578T breast
# [21] = tested on: MCF7 breast
# [22] = tested on: MDA-MB-435
# [23] = tested on: OVCAR-8 ovarian
# [24] = tested on: SNB-19 CNS
# [25] = tested on: HOP-92 NSCLC
# [26] = tested on: U251 CNS
# [27] = tested on: SF-539 CNS
# [28] = tested on: A549 NSCLC
# [29] = tested on: UO-31 renal
# [30] = tested on: TK-10 renal
# [31] = tested on: NCI-H522 lung
# [32] = tested on: SN12C renal
# [33] = tested on: HCT-15 colon
# [34] = tested on: SF-268 CNS
# [35] = tested on: ACHN renal
# [36] = tested on: IGROV1 ovarian
# [37] = tested on: SK-OV-3 ovarian
# [38] = tested on: MDA-N
# [39] = tested on: CCRF-CEM leukemia
# [40] = tested on: SR leukemia
# [41] = tested on: K-562 leukemia
# [42] = tested on: CAKI-1 renal
# [43] = tested on: OVCAR-5 ovarian
# [44] = tested on: NCI/ADR-RES ovarian
# [45] = tested on: DU-145 prostate
# [46] = tested on: PC-3 prostate
# [47] = tested on: UACC-257 melanoma
# [48] = tested on: T-47D breast
# [49] = tested on: KM12 colon
# [50] = tested on: NCI-H23 lung
# [51] = tested on: LOX IMVI melanoma
# [52] = tested on: COLO 205 colon
# [53] = tested on: NCI-H460 lung
# [54] = tested on: SK-MEL-28 melanoma
# [55] = tested on: EKVX NSCLC
# [56] = tested on: M14 melanoma
# [57] = tested on: OVCAR-4 ovarian
# [58] = tested on: RPMI-8226 leukemia
# [59] = tested on: MALME-3M melanoma
structure (smiles),measurement,setting,value
C=C1CC2(CCOc3ccc(Cl)cc32)OC1=O (stereo not given),TGI,[1],5.44 µM
same,TGI,[2],7.13 µM
same,TGI,[3],16.3 µM
same,TGI,[4],26.1 µM
same,TGI,[5],40.3 µM
same,TGI,[6],21.5 µM
same,TGI,[7],7.52 µM
same,TGI,[8],6.29 µM
same,TGI,[9],14.2 µM
same,TGI,[10],30.2 µM
same,TGI,[11],10.7 µM
same,TGI,[12],8.29 µM
same,TGI,[13],20.1 µM
same,TGI,[14],8.84 µM
same,TGI,[15],6.98 µM
same,TGI,[16],2.75 µM
same,TGI,[17],24.2 µM
same,TGI,[18],11.2 µM
same,TGI,[19],22.7 µM
same,TGI,[20],23.4 µM
same,TGI,[21],6.16 µM
same,TGI,[22],14.1 µM
same,TGI,[23],16.5 µM
same,TGI,[24],32.6 µM
same,TGI,[25],12.4 µM
same,TGI,[26],22.5 µM
same,TGI,[27],0.976 µM
same,TGI,[28],29.3 µM
same,TGI,[29],11.2 µM
same,TGI,[30],17.5 µM
same,TGI,[31],3.42 µM
same,TGI,[32],22.1 µM
same,TGI,[33],4.26 µM
same,TGI,[34],16.1 µM
same,TGI,[35],15.4 µM
same,TGI,[36],21.2 µM
same,TGI,[37],26.2 µM
same,TGI,[38],17.9 µM
same,TGI,[39],53 µM
same,TGI,[40],12.2 µM
same,TGI,[41],> 31.5 µM
same,TGI,[42],15.4 µM
same,TGI,[43],23.4 µM
same,TGI,[44],24.6 µM
same,TGI,[45],27.4 µM
same,TGI,[46],10.6 µM
same,TGI,[47],20.1 µM
same,TGI,[48],32.3 µM
same,TGI,[49],28 µM
same,TGI,[50],19.5 µM
same,TGI,[51],8.88 µM
same,TGI,[52],6.16 µM
same,TGI,[53],12.6 µM
same,TGI,[54],23.3 µM
same,TGI,[55],21.5 µM
same,TGI,[56],11.1 µM
same,TGI,[57],4.33 µM
same,TGI,[58],9.35 µM
Cc1cc(=O)[nH]c(S(=O)(=O)NC(=S)Nc2ccc(Cl)cc2)n1,TGI,[1],> 100 µM
same,TGI,[2],> 100 µM
same,TGI,[3],> 100 µM
same,TGI,[4],> 100 µM
same,TGI,[5],> 100 µM
same,TGI,[6],> 100 µM
same,TGI,[7],> 100 µM
same,TGI,[8],> 100 µM
same,TGI,[9],> 100 µM
same,TGI,[10],> 100 µM
same,TGI,[11],> 100 µM
same,TGI,[12],> 100 µM
same,TGI,[13],> 100 µM
same,TGI,[14],> 100 µM
same,TGI,[15],> 100 µM
same,TGI,[16],> 100 µM
same,TGI,[17],> 100 µM
same,TGI,[18],> 100 µM
same,TGI,[19],> 100 µM
same,TGI,[20],> 100 µM
same,TGI,[21],> 100 µM
same,TGI,[22],> 100 µM
same,TGI,[23],> 100 µM
same,TGI,[24],> 100 µM
same,TGI,[25],> 100 µM
same,TGI,[26],> 100 µM
same,TGI,[27],> 100 µM
same,TGI,[28],> 100 µM
same,TGI,[29],> 100 µM
same,TGI,[30],> 100 µM
same,TGI,[31],84.6 µM
same,TGI,[32],> 100 µM
same,TGI,[33],> 100 µM
same,TGI,[34],> 100 µM
same,TGI,[35],> 100 µM
same,TGI,[36],> 100 µM
same,TGI,[37],> 100 µM
same,TGI,[38],> 100 µM
same,TGI,[39],> 100 µM
same,TGI,[40],> 100 µM
same,TGI,[42],> 100 µM
same,TGI,[43],> 100 µM
same,TGI,[44],> 100 µM
same,TGI,[59],> 100 µM
same,TGI,[45],> 100 µM
same,TGI,[46],> 100 µM
same,TGI,[47],> 100 µM
same,TGI,[48],> 100 µM
same,TGI,[49],> 100 µM
same,TGI,[50],> 100 µM
same,TGI,[52],> 100 µM
same,TGI,[53],> 100 µM
same,TGI,[54],> 100 µM
same,TGI,[55],> 100 µM
same,TGI,[56],> 100 µM
same,TGI,[57],> 100 µM
same,TGI,[58],> 100 µM
